Measurements as given in ChEMBL document CHEMBL6120996, “Discovery and optimization of 1,2,4-triazole derivatives as novel ferroptosis inhibitors” (Eur J Med Chem, 2025).
Calls of active or inactive are those of the source. The rule behind the calls is not given here.

Legend:
786-0 [1] = assay: Inhibition of RSL3-induced ferroptosis in human 786-0 cells assessed as cell viability incubated for 24 hrs by CellTiter-LumiTM assay; type: functional, cell-based; details: 786-0, 24 h
HT-1080 = assay: Anti-ferroptotic activity in human GPX4 knockout HT-1080 cells assessed as cell viability at 1 uM incubated for 24 hrs by CellTiter-LumiTM plus luminescent cell viability assay; type: functional, cell-based
786-0 [2] = assay: Inhibition of RSL3-induced ferroptosis in human 786-0 cells assessed as cell viability by assessing cell morphology incubated for 24 hrs by CellTiter-LumiTM plus luminescent cell viability assay; type: functional, cell-based; details: 786-0, 24 h
[3] = Inhibition of erastin induced ferroptosis in human 786-0 cells assessed as cell viability incubated for 24 hrs by CellTiter-LumiTM assay; type: functional, cell-based; details: 786-0, 24 h
[4] = Inhibition of RSL3 induced ferroptosis in H9c2 cells assessed as cell viability incubated for 24 hrs by CellTiter-LumiTM assay; type: functional, cell-based; details: Rattus norvegicus, H9c2, 24 h
[5] = Inhibition of RSL3 induced ferroptosis in human HT-1080 cells assessed as cell viability incubated for 24 hrs by CellTiter-LumiTM assay; type: functional, cell-based; details: HT-1080, 24 h
[6] = Inhibition of RSL3 induced ferroptosis in human SK-HEP1 cells assessed as cell viability incubated for 24 hrs by CellTiter-LumiTM assay; type: functional, cell-based; details: SK-HEP1, 24 h
[7] = Inhibition of RSL3 induced ferroptosis in human MHCC97H cells assessed as cell viability incubated for 24 hrs by CellTiter-LumiTM assay; type: functional, cell-based
786-0 [8] = assay: Inhibition of STS induced apoptosis in human 786-0 cells assessed as cell viability at 1 uM incubated for 24 hrs by CellTiter-LumiTM assay; type: functional, cell-based
786-0 [9] = assay: Inhibition of H2O2 induced necrosis in human 786-0 cells assessed as cell viability at 1 uM incubated for 24 hrs by CellTiter-LumiTM assay; type: functional, cell-based
786-0 [10] = assay: Metal chelating activity assessed as Fe2+ chelation in human 786-0 cells assessed as intracellular ferrous ion level at 1 uM by FerroOrange fluorescent probe based assay; type: cell-based
786-0 [11] = assay: Inhibition of RSL3 induced ferroptosis in human 786-0 cells assessed as cell viability in presence of iFSP1 at 1 uM measured after 24 hrs by CellTiter-LumiTM assay; type: functional, cell-based
786-0 [12] = assay: Effect on erastin-induced decrease in GSH level in human 786-0 cells at 1 uM incubated for 10 hrs by Total intracellular GSH assay; type: functional, cell-based
786-0 [13] = assay: Cytotoxicity against human 786-0 cells assessed as cell viability incubated for 24 hrs by CellTiter-LumiTM assay; type: functional
786-0 [14] = assay: Inhibition of RSL3 induced lipid-ROS accumulation in human 786-0 cells incubated for 2.5 hrs by C11-BODIPY 581/591 staining coupled with flow cytometry analysis; type: functional, cell-based; details: dose 0.1-1 µM
786-0 [15] = assay: Inhibition of RSL3 induced lipid-ROS accumulation in human 786-0 cells assessed as fast elimination at 1 uM measured after 0.25 to 2.5 hrs by C11-BODIPY 581/591 staining coupled with flow cytometry analysis; type: functional, cell-based; details: time 0.25-2.5 hrs
SK-HEP1 [16] = assay: Inhibition of RSL3 induced lipid-ROS accumulation in human SK-HEP1 cells at 1 uM incubated for 2.5 hrs by C11-BODIPY 581/591 staining coupled with flow cytometry analysis; type: functional, cell-based
SK-HEP1 [17] = assay: Inhibition of RSL3 induced lipid-ROS accumulation in human SK-HEP1 cells at 1 uM incubated for 0.5 hrs by C11-BODIPY 581/591 staining coupled with flow cytometry analysis; type: functional, cell-based
[18] = Antioxidant activity assessed as free radical scavenging activity incubated for 30 mins in dark by DPPH assay relative to control; type: functional
[19] = Suppression of autoxidation of liposomes egg ( unknown origin) phosphatidylcholine lipids as substrate at 0.1 to 2.5 uM incubated for 5 min by C11-BODIPY 581/591 dye based fluorescent assay; type: functional; details: dose 0.1-2.5 µM
786-0 [20] = assay: Effect on GPX4 expression in human 786-0 cells at 1 uM incubated for 2.5 hrs by Western blot analysis; type: functional, cell-based
786-0 [21] = assay: Effect on IRP1 expression in human 786-0 cells at 1 uM incubated for 2.5 hrs by western blot analysis; type: functional, cell-based
786-0 [22] = assay: Effect on ACSL4 expression in human 786-0 cells at 1 uM incubated for 2.5 hrs by Western blot analysis; type: functional, cell-based
786-0 [23] = assay: Effect on SLC7A11 expression in human 786-0 cells at 1 uM incubated for 2.5 hrs by Western blot analysis; type: functional, cell-based
786-0 [24] = assay: Effect on TFRC expression in human 786-0 cells at 1 uM incubated for 2.5 hrs by Western blot analysis; type: functional, cell-based
786-0 [25] = assay: Effect on FTH1 expression in human 786-0 cells at 1 uM incubated for 2.5 hrs by western blot analysis; type: functional, cell-based
786-0 [26] = assay: Effect on FTL expression in human 786-0 cells at 1 uM incubated for 2.5 hrs by western blot analysis; type: functional, cell-based
786-0 [27] = assay: Inhibition of RSL3-induced ferroptosis in human 786-0 cells assessed as cell protection by assessing cell morphology at 1 uM incubated for 24 hrs; type: functional, cell-based
786-0 [28] = assay: Effect on TFRC expression in human 786-0 cells in presence of 0.25 uM RSL3 at 1 uM incubated for 2.5 hrs by Western blot analysis; type: functional, cell-based
786-0 [29] = assay: Effect on IRP1 expression in human 786-0 cells in presence of 0.25 uM RSL3 at 1 uM incubated for 2.5 hrs by Western blot analysis; type: functional, cell-based
786-0 [30] = assay: Effect on FTH1 expression in human 786-0 cells in presence of 0.25 uM RSL3 at 1 uM incubated for 2.5 hrs by Western blot analysis; type: functional, cell-based
786-0 [31] = assay: Effect on FTL expression in human 786-0 cells in presence of 0.25 uM RSL3 at 1 uM incubated for 2.5 hrs by Western blot analysis; type: functional, cell-based
[32] = Metabolic stability in human plasma assessed as half life at 1 uM by LC-MS/MS analysis; type: ADME, cell-free
[33] = Metabolic stability in rat plasma assessed as half life at 1 uM by LC-MS/MS analysis; type: ADME, cell-free
[34] = Microsomal stability in human liver microsomes assessed as half life at 0.1 uM by LC-MS/MS analysis; type: ADME, Microsome; details: liver microsomes
[35] = Microsomal stability in rat liver microsomes assessed as half life at 0.1 uM by LC-MS/MS analysis; type: ADME, Microsome; details: liver microsomes
[36] = Microsomal stability in human liver microsomes assessed as hepatic clearance at 0.1 uM by LC-MS/MS analysis; type: ADME, Microsome
[37] = Microsomal stability in human liver microsomes assessed as hepatic extraction ratio at 0.1 uM by LC-MS/MS analysis; type: ADME, Microsome; details: read-out: ERH
[38] = Microsomal stability in rat liver microsomes assessed as hepatic clearance at 0.1 uM by LC-MS/MS analysis; type: ADME, Microsome
[39] = Microsomal stability in rat liver microsomes assessed as hepatic extraction ratio at 0.1 uM by LC-MS/MS analysis; type: ADME, Microsome; details: read-out: ERH
[40] = Metal chelating activity assessed as Fe2+ chelation assessed as absorbance peak at 430 nm by UV-vis spectroscopy; details: dose 1.0 µM
Mus musculus [41] = assay: Anti-ferroptotic activity in ConA-induced C57 mouse liver injury model assessed as reduction in ALT levels in serum at 10 mg/kg, ip pre-treated 1 day followed by treated with ConA measured after 24 hrs; type: functional, organism-based; details: time 2.0 day
Mus musculus [42] = assay: Anti-ferroptotic activity in ConA-induced C57 mouse liver injury model assessed as reduction in AST levels in serum at 10 mg/kg, ip pre-treated 1 day followed by challenged with ConA measured after 24 hrs; type: functional, organism-based
Mus musculus [43] = assay: Anti-ferroptotic activity in ConA-induced C57 mouse liver injury model assessed as decrease in acute liver injury at 10 mg/kg, ip pre-administered one day followed by treated with ConA measured after 24 hrs by HE staining based analysis; type: functional, organism-based; details: time 48.0 hrs
Mus musculus [44] = assay: Anti-ferroptotic activity in ConA-induced C57 mouse acute liver injury model assessed as reduction in malondialdehyde levels at 10 mg/kg, ip pre-administered one day followed by treated with ConA measured after 24 hrs by MDA kit assay; type: functional, organism-based; details: time 48.0 hrs
Mus musculus [45] = assay: Anti-ferroptotic activity in ConA-induced C57 mouse acute liver injury model assessed as assessed as reduction in PTGS2 mRNA levels in liver tissue at 10 mg/kg, ip pre-administered one day followed by treated with ConA measured after 24 hrs by qRT-PCR analysis; type: functional, organism-based; details: time 48.0 hrs
Mus musculus [46] = assay: Anti-ferroptotic activity in ConA-induced C57 mouse acute liver injury model assessed as assessed as reduction in 4-HNE accumulation in liver tissue at 10 mg/kg, ip pre-administered one day followed by treated with ConA measured after 24 hrs by 4-HNE staining based analysis; type: functional, organism-based; details: time 48.0 hrs

For `COC(=O)c1ccc(COc2c(OC)cccc2C2N(c3ccccc3)N=C(C(C)=O)N2c2ccc(N(C)C)cc2)cc1` (centres undefined), the EC50 (786-0 [1]) was 70 nM, the Activity (HT-1080) was “Active” and the EC50 (786-0 [2]) was 91 nM. For the same molecule, the EC50 [3] was 52 nM, the EC50 [4] was 171 nM and the EC50 [5] was 317 nM. For the same molecule, the EC50 [6] was 128 nM, the EC50 [7] was 635 nM and the inhibition (786-0 [8]) was “inactive”. For the same molecule, the inhibition (786-0 [9]) was “inactive”, the Activity (786-0 [10]) was “inactive” and the inhibition (786-0 [11]) was “Active”. The Activity (786-0 [12]) was “inactive”, the CC50 (786-0 [13]) was greater than 40000 nM and the inhibition (786-0 [14]) was “Dose-dependent-effect”. The inhibition (786-0 [15]) was “Active; Eliminated As Fast As Fer-1”, the inhibition (SK-HEP1 [16]) was “Active” and the inhibition (SK-HEP1 [17]) was “Active”. For the same molecule, the Activity [18] was “Active”, the Activity [19] was “Dose-dependent-effect” and the Activity (786-0 [20]) was “inactive”. For the same molecule, the Activity (786-0 [21]) was “inactive”, the Activity (786-0 [22]) was “inactive” and the Activity (786-0 [23]) was “inactive”. For the same molecule, the Activity (786-0 [24]) was “inactive”, the Activity (786-0 [25]) was “inactive” and the Activity (786-0 [26]) was “inactive”. The Activity (786-0 [27]) was “Active”, the Activity (786-0 [28]) was “inactive” and the Activity (786-0 [29]) was “inactive”. For the same molecule, the Activity (786-0 [30]) was “inactive” and the Activity (786-0 [31]) was “inactive”.

With `COc1cccc(C2N(c3ccccc3)N=C(C(C)=O)N2c2ccc(N(C)C)cc2)c1OCc1ccc(F)c(F)c1` (centres undefined) the EC50 (786-0 [1]) was 60 nM, the Activity (HT-1080) was “Active” and the half-life at 1 µM [32] was 33.7 h. For the same molecule, the half-life at 1 µM [33] was 6.58 h, the half-life at 0.1 µM [34] was 5.74 min and the half-life at 0.1 µM [35] was 2.87 min. For the same molecule, the CLhep predicted at 0.1 µM [36] was 20.4 mL/min/kg, the hepatic extraction ratio at 0.1 µM [37] was 0.986 and the CLhep predicted at 0.1 µM [38] was 54.5 mL/min/kg. It also gave a hepatic extraction ratio at 0.1 µM [39] of 0.987, an EC50 (786-0 [2]) of 62 nM and an EC50 [3] of 44 nM. It also gave an EC50 [4] of 122 nM, an EC50 [5] of 186 nM and an EC50 [6] of 134 nM. The EC50 [7] was 288 nM, the inhibition (786-0 [8]) was “inactive” and the inhibition (786-0 [9]) was “inactive”. For the same molecule, the Activity (786-0 [10]) was “inactive”, the inhibition (786-0 [11]) was “Active” and the Activity (786-0 [12]) was “inactive”. The CC50 (786-0 [13]) was greater than 40000 nM, the inhibition (786-0 [14]) was “Dose-dependent-effect” and the inhibition (786-0 [15]) was “Active; Eliminated As Fast As Fer-1”. The inhibition (SK-HEP1 [16]) was “Active”, the inhibition (SK-HEP1 [17]) was “Active” and the Activity [18] was “Active”. The Activity [40] was “inactive”, the Activity [19] was “Dose-dependent-effect” and the Activity (Mus musculus [41]) was “Active”. For the same molecule, the Activity (Mus musculus [42]) was “Active”, the Activity (786-0 [20]) was “No effect” and the Activity (786-0 [21]) was “No effect”. For the same molecule, the Activity (786-0 [22]) was “No effect”, the Activity (786-0 [23]) was “No effect” and the Activity (786-0 [24]) was “No effect”. The Activity (786-0 [25]) was “No effect”, the Activity (786-0 [26]) was “No effect” and the Activity (Mus musculus [43]) was “Active”. The Activity (Mus musculus [44]) was “Active”, the Activity (Mus musculus [45]) was “Active” and the Activity (Mus musculus [46]) was “Active”. For the same molecule, the Activity (786-0 [27]) was “Active”, the Activity (786-0 [28]) was “inactive” and the Activity (786-0 [29]) was “inactive”. The Activity (786-0 [30]) was “inactive” and the Activity (786-0 [31]) was “inactive”.
